Series [1] in a line: Water solubility (statement). In kind it is physicochemical.
The nature of series [2]: HPLC of 4-MU and metabolites in serum of mice fed 4-MU chow for two weeks. The format is in vivo. The settings on record: mice fed 4-MU for two weeks. The text has this:
As a result of efficient glucuronidation of 4-MU in the liver and intestines by multiple UDP-glucuronosyltransferases (UGTs), the predominant form present systemically in mice on oral 4-MU chow is 4-MUG, as has been reported previously (Mulder G J, et al., Biochem Pharmacol. 1985; 34(8):1325-1329). For example, FIG. 1A illustrates molecular structures for 4-MU and its primary metabolites, 4-MUG and 4-MUS. […] N=3 animals per group. […] N=3 animals per group.

Series [3] relates to CHO-HAS3 cells. The experiment in a line: HA production by CHO-HAS3 cells engineered to overexpress HAS3. In kind it is cell-based. Particulars: 48 hours; non-hydrolyzable 4-MUG at comparable doses to 4-MU or conventional 4-MUG. As for the experimental part:
Samples were thawed and assayed for HA levels using a modified HA ELISA as previously described (Nagy N., et al., J. Clin. Invest. 2015; 125(10):3928-3940). Each sample was analyzed in triplicate with a mean value obtained per sample. For cell normalization, LI-COR CellTag™ 700 Stain was used according to the manufactures protocol.
To test whether 4-MUG has bioactivity independently of any possible conversion to 4-MU, a non-hydrolyzable version of 4-MUG was generated (FIG. 5A).

The subject of series [4] is blood leukocytes. Put plainly: Leukocyte 4-MU uptake in mice on oral 4-MU (flow cytometry, Pacific Blue channel). The settings on record: blood leukocyte subsets, days 0, 2, 7, 14. The format is in vivo, C57Bl/6J mice. From the text: Next, the uptake of 4-MU by different leukocyte subsets was examined. To this end, mice were fed 4-MU and 4-MU signal was examined on blood leukocytes from representative animals at intervals of 0, 2, 7, and 14 days after the initiation of 4-MU treatment. […] Bold histograms depict signal in 4-MU treated mice, shaded histograms depict background Pacific Blue signal in untreated mice. Cell surface markers were stained to examine 4-MU uptake by multiple cell types, including CD4+ T-cells (CD3+CD4+), CD8+ T-cells (CD3+CD8+), B-cells (I-A/I-E+B220+) dendritic cells (DC; I-A/I-E+CD11c+), macrophages (Mc); I-A/I-E+CD11c−), neutrophils (Ly6G/C+CD14+) and monocytes (Ly6G/C-CD14+).
C57Bl/6J mice were treated with 4-MU and leukocytes from representative animals were isolated from the blood at baseline (before 4-MU treatment) and at intervals of 2, 7, and 14 days after the initiation of chow. […] To detect fluorescence emitted by 4-MU using flow cytometry on specific leukocyte subsets, peripheral blood red cells were lysed using Ammonium-Chloride-Potassium (ACK) buffer, and leukocytes were stained with the following fluorochrome-conjugated antibodies: BV650-CD3 (17-A2), BV785-CD4 (RM4-5), APC-CD11c (N418), PE-CD14 (Sa2-8), PE-Cy7-Ly-6G/C (RB6-8C5), PE-CyS. […] Samples were run on a BD™ LSRII flow cytometer (Beckon Dickinson) and data was analyzed using FlowJo software (TreeStar).
(In general: In flow cytometry, cells or beads pass a laser one at a time.)

As for `Cc1cc(=O)oc2cc(O[C@@H]3O[C@H](C(=O)O)[C@@H](O)[C@H](O)[C@H]3O)ccc12` [4-MUG, 4-methylumbelliferone-glucuronide], the water solubility entry in series [1] is reported as “water-soluble”. In series [2], the “median serum concentration of 4-MUG relative to parent compound 4-MU” value was “about 150 fold”. In series [3], the “HA production by CHO-HAS3 cells” value was “directly inhibits HA synthesis”.

Turning to `Cc1cc(=O)oc2cc(O)ccc12` [4-MU, 4-methylumbelliferone], the “time period of oral treatment required for leukocyte populations to take up 4-MU” value in series [4] was 1-2 weeks.

For the origin of these results see patent publication US20220079966A1, “HYALURONAN SYNTHESIS INHIBITION FOR TREATING AUTOIMMUNE, INFLAMMATORY, FIBROTIC, OR PROLIFERATIVE DISEASES OR DISORDERS” (The Board of Trustees of the Leland Stanford Junior …, priority 2018, published 2022).
